Data: US4988692A, “2,4-dioxo-5-phenyl-2,3,4,5-tetrahydro-1H-1,5-benzodiazepines” (Uclaf; Roussel, priority 1985, dated 1991)

Experiments:
Peripheral CCK receptors = biological target: T1, Peripheral CCK receptors (Rattus norvegicus, UniProt P30551); test: Peripheral receptors: 3H CCK8 binding, rat pancreas homogenate
T1 construct: The pancreases of 3 male rats weighing 150-200 g were removed and ground up with Polytron; from tissue; host or cells: rat pancreas homogenate (30,000 g pellet)
T1 sequence (P30551 1-444): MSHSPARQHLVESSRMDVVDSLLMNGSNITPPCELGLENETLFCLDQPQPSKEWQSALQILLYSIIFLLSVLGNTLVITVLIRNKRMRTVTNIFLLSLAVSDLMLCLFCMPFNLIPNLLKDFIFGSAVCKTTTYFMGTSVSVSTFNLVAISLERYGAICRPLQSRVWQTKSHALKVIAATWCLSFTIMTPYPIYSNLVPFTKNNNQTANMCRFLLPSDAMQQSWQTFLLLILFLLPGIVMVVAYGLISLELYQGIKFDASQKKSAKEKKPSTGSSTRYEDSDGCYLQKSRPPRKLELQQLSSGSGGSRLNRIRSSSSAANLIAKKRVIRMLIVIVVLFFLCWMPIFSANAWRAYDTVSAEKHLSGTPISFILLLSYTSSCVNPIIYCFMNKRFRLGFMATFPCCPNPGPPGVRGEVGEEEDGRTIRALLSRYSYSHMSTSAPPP
Experimental: The pancreases of 3 male rats weighing 150-200 g were removed and ground up with Polytron (4 grindings, speed 3, with an interval of 10 seconds between the grindings) and the homogenate was filtered through a gauze and then centrifuged at 30,000 g for 30 minutes. The residues obtained were taken up in 400 volumes (600 ml) of Tris 50 mM HCl pH 7.4 buffer containing BSA 2 g/l., bacitracin 0.1 mM, MgCl2 5 mM, dithiothreitol 5 mM. 2 ml aliquots of the homogenate were incubated at 25° C. for 60 minutes in the presence of […] 3H CCK8 and of the test product (10,000 μM for 1 dose, or with one range of 7 doses) and of cold CCK8 (10^-6 M) which was the reference product. After returning to 0° C., the aliquots were filtered on Whatman GF/B filters, pre-washed in a solution of polyethylene imine at 0.05% and washed with 3×5 ml of buffer Tris HCl 50 mM, pH 7.4. The results were expressed in IC50, the concentration necessary to inhibit by 50% the fixed specific radioactivity, IC50 n mol

food consumption = test: Action on the alimentary intake in a rat; assay type: in vivo; conditions: 10 mg/kg intraperitoneal, consumption followed hourly for 5 hours
Experimental: The tests were carried out on groups of 5 rats weighing 250 g±10 g and the animals were individually placed in cages with a trough as described by Fregly (J. Appl. Physiol Vol. 15 (1960), p. 539) which avoided wasting of the powdered foodstuffs. The rats were accustomed to taking their daily portion over 5 consecutive hours with as much drinking water as desired being offered in glass feeding bottles. The quantities of food ingested were determined individually by the weight of the troughs and the comsumptions were followed hourly for 5 hours after intraperitoneal administration of 10 mg/kg of the compound. The quantities consumed are expressed in g/100 g of body weight per hour. The averages are compared to those obtained with control animals by a DUNNETT test.

Central CCK receptors = biological target: T2, Central CCK receptors (Rattus norvegicus, UniProt P30553); test: Central receptors: 3H CCK8 binding, rat cortex homogenate; conditions: 0.5 nM 3H CCK8, 25° C., 30 minutes
T2 construct: The cortices of 20 male rats weighing 150 to 200 g were removed, and were ground up with Polytron in sucrose; from tissue; host or cells: rat cerebral cortex homogenate (washed membrane pellet)
T2 sequence (P30553 1-452): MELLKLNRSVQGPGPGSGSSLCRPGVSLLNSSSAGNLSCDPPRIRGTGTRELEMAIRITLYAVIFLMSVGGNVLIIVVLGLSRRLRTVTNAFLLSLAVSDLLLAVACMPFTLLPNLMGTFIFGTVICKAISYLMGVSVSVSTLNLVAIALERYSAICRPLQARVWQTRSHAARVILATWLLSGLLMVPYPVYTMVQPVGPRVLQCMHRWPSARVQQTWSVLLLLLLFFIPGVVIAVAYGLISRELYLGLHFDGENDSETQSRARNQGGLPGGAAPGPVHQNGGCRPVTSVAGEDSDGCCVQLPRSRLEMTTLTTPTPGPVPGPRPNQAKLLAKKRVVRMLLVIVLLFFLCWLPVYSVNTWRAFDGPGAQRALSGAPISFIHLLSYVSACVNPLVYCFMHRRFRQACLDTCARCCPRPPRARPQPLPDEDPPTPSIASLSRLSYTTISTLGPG
Experimental: The cortices of 20 male rats weighing 150 to 200 g were removed, and were ground up with Polytron in sucrose 0.32M. After centrifuging, the supernatant was recovered and centrifuged. The residues were re-suspended in 120 ml of Hepes buffer pH 7.4 (Hepes 10 mM, NaCl 130 mM, MgCl2, 6H2 O 5 mM, bacitracin 250 mg/l., PMSF 1 mg/l), and re-centrifuged. The residues were taken up in 120 ml of Hepes buffer pH 7.4 and re-centrifuged at 30,000 g for 30 minutes. The residues thus obtained were taken up in 500 ml of Hepes buffer pH 7.4, which enabled 240 aliquots of 2 ml of homogenate to be obtained. The incubation was effected at 25° C. for 30 minutes in the presence of 0.5 nM of 3H CCK8 and the test product (10,000 μM for 1 dose, or with a range of 7 doses or of cold CCK8 (10^-6 M), which was the reference product). After returning the aliquots of the homogenate to 0° C., they were filtered on Whatman GF/B filters and the filters were washed with 3×5 ml of a Tris HCl 50 mM pH 7.4 buffer. The results are expressed is IC50 which is the concentration necessary to inhibit by 50% the fixed specific radioactivity.

[1] = tested on: CCK8-induced contractions of isolated ileum; test: Action on the isolated ileum of a guinea-pig (antagonism of CCK8 contractions); conditions: product 10^-7 M, one minute contact, CCK8 1.10^-8 M
Experimental: The test was carried out on fragments of ileum from male guinea-pigs placed under a tension of 1 g in a Krebs solution aerated with carbogen and maintained at 37° C. The contractions were recorded with a microdynamometer connected to a polygraph. The ileum was left at rest for 30 minutes and then CCK8 was added to the bath in a concentration of 1.10^-8 M, followed by rinsing. The test product was added to the bath, left in contact with the organ for one minute and then CCK8 (1.10^-8 M) was added to the bath. The possible antagonism was expressed by comparing the contractions caused by the CCK8 before and after contact with the product under test.

Compound	IC50 (Peripheral CCK receptors)	reduction of food consumption in relation to control animals (anorexigenic activity) (food consumption)	IC50 (Central CCK receptors)	antagonism of contractions caused by CCK8 [1]
CN1C(=O)C(NC(=O)c2cc3ccccc3[nH]2)C(=O)N(c2ccccc2)c2cc(Cl)ccc21 (stereo not drawn) [Example 1, N-(7-chloro-2,4-dioxo-1-methyl-5-phenyl-2,3,4,5-tetrahydro-1H-1,5-benzodiazepin-3-yl)-1H-indole-2-carboxamide]	20 nM	more than 50%	2200 nM	–
CN1C(=O)C(NC(=O)c2cc3ccccc3[nH]2)C(=O)N(c2ccccc2)c2ccccc21 (stereo not drawn) [Example 2]	14 nM	–	> 10000 nM	significant antagonist activity
